SMILES strings stand for the structures.

In turn, `COc1cc2c(cc1OC)-c1c(-c3nc(C)no3)c(-c3cc(C)c(O)c(C)c3)c(C)n1C(C)C2` (racemic) [Example 1, (5RS)-4-[8,9-Dimethoxy-3,5-dimethyl-1-(3-methyl-[1,2,4]oxadiazol-5-yl)-5,6-dihydro-pyrrolo[2,1-a]isoquinolin-2-yl]-2,6-dimethyl-phenol] came in with a melting point of 182 to 184 °C.

`COc1cc2c(cc1OC)-c1c(-c3nc(-c4ccccc4)no3)c(-c3cc(C)c(O)c(C)c3)c(C)n1C(C)C2` (racemic) [Example 3, (5RS)-4-[8,9-Dimethoxy-3,5-dimethyl-1-(3-phenyl-[1,2,4]oxadiazol-5-yl)-5,6-dihydro-pyrrolo[2,1-a]isoquinolin-2-yl]-2,6-dimethyl-phenol] returned a melting point of 203 to 206 °C.

As to `COc1cc2c(cc1OC)-c1c(-c3nc(C4CC4)no3)c(-c3cc(C)c(O)c(C)c3)c(C)n1C(C)C2` (stereo not drawn) [Example 2, (5RS)-4-[1-(3-Cyclopropyl-[1,2,4]oxadiazol-5-yl)-8,9-dmethoxy-3,5-dimethyl-5,6-dihydro-pyrrolo[2,1-a]isoquinolin-2-yl]-2,6-dimethyl-phenol], the melting point fell in the range of 174 to 175 °C.

Consider `COc1cc2c(cc1OC)-c1c(-c3nc(-c4ccccc4)no3)c(-c3cc(C)c(O)c(C)c3)c(C)n1CC2` [Example 4, 4-[8,9-Dimethoxy-3-methyl-1-(3-phenyl-[1,2,4]oxadiazol-5-yl)-5,6-dihydro-pyrrolo[2,1-a]isoquinolin-2-yl]-2,6-dimethyl-phenol], for which the melting point was 191 to 193 °C.

`COc1cc2c(cc1OC)-c1c(-c3nc(C)no3)c(-c3cc(C)c(O)c(C)c3)c(C)n1CC2` [Example 5, 4-[8,9-Dimethoxy-3-methyl-1-(3-methyl-[1,2,4]oxadiazol-5-yl)-5,6-dihydro-pyrrolo[2,1-a]isoquinolin-2-yl]-2,6-dimethyl-phenol] returned a melting point of 218 to 221 °C.

Compound `COc1cc2c(cc1OC)-c1c(-c3ncc(C)o3)c(-c3cc(C)c(O)c(C)c3)c(C)n1CC2` [Example 6, 4-[8,9-Dimethoxy-3-methyl-1-(5-methyl-oxazol-2-yl)-5,6-dihydro-pyrrolo[2,1-a]isoquinolin-2-yl]-2,6-dimethyl-phenol] showed a melting point of 222 to 224 °C.

What is called melting point is the temperature, or range, at which the solid turns liquid.
